# Assays:
# Assay type in all cases: in vivo
# Avena fatua = assay: Test Example 5: herbicidal effect by foliage application, plastic box (symbol I); details: 320 g/ha, 3 weeks after application
# Method in brief: (§1)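 Sowing in sterilized diluvial soil, 14 days' greenhouse growth at 25° C. to 30° C., then uniform small-sprayer foliar application of aqueous emulsion dilution; plants scored three weeks afterwards.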
# Lolium multiflorum Lam. [1] = assay: Test Example 5: herbicidal effect by foliage application, plastic box (symbol K); details: 320 g/ha, 3 weeks after application
# Method in brief: as §1
# Lolium multiflorum Lam. [2] = assay: Test Example 4: herbicidal effect by soil treatment (symbol K); details: application herbicide amount 320 g/ha
# Method in brief: (§2)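 Seeds were sown in sterilized diluvial soil, covered with about 1.5 cm of soil, and the soil surface was sprayed with a water-diluted emulsion of the compound at a predetermined rate. Plants grew in a greenhouse at 25° C. to 30° C.; effects were scored visually 3 weeks after application.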
# corn = assay: Test Example 4: effect on crop by soil treatment (symbol c); details: application herbicide amount 320 g/ha
# Method in brief: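 The test used sterilized diluvial soil. Seed was set down in spots and overlaid with about 1.5 cm of soil before growth in a greenhouse kept at 25° C. to 30° C.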
# Veronica persica = assay: Test Example 5: herbicidal effect by foliage application, plastic box (symbol R); details: 320 g/ha, 3 weeks after application
# Method in brief: as §1
# rice plant = assay: Test Example 5: effect on crop by foliage application, plastic box (symbol b); details: 320 g/ha, 3 weeks after application
# Method in brief: (§3)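 A greenhouse held between 25° C. and 30° C. was used to grow plants sown spot-wise, beneath ~1.5 cm of soil, in boxes of sterilized diluvial soil.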
# rice = assay: Test Example 4: effect on crop by soil treatment (symbol b); details: application herbicide amount 320 g/ha
# Method in brief: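 Grown at 25° C. to 30° C. in a greenhouse, the crops came from seed sown spot-wise in sterilized diluvial soil under roughly 1.5 cm of covering soil.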
# Apera spica-venti = assay: Test Example 4: herbicidal effect by soil treatment (symbol L); details: application herbicide amount 320 g/ha
# Method in brief: as §2
# wheat = assay: Test Example 5: effect on crop by foliage application, plastic box (symbol e); details: 320 g/ha, 3 weeks after application
# Method in brief: as §3
# Alopecurus myosuroides = assay: Test Example 5: herbicidal effect by foliage application, plastic box (symbol J); details: 320 g/ha, 3 weeks after application
# Method in brief: as §1
# Cyperus difformis = assay: Test Example 3: herbicidal effect by foliage application, Wagner pot (symbol E); details: application herbicide amount 320 g/ha
# Method in brief: (§4)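 Seeds sown in alluvial soil kept under 0.1–0.5 cm water, greenhouse 25–30 °C; 14 d growth. Leaves treated by small sprayer with water-diluted emulsion at a predetermined rate. Effect graded by set scale, 3 weeks.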
# Setaria viridis = assay: Test Example 5: herbicidal effect by foliage application, plastic box (symbol G); details: 320 g/ha, 3 weeks after application
# Method in brief: as §1
# [3] = system: Echinochloa crus-galli var. crus-galli; assay: Test Example 3: herbicidal effect by foliage application, Wagner pot (symbol H); details: application herbicide amount 320 g/ha
# Method in brief: as §4
# [4] = system: Echinochloa crus-galli var. crus-galli; assay: Test Example 4: herbicidal effect by soil treatment (symbol H); details: application herbicide amount 320 g/ha
# Method in brief: as §2
# Scirpus juncoides = assay: Test Example 2: herbicidal activity, application during weed generation in submerged conditions (symbol B); details: Table 23; application herbicide amount 320 g/ha; grade 0-5 by criteria of Test Example 1
# Method in brief: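 Each pot contained alluvial soil under 4 cm of water with seeds of all three weeds sown together. Following growth at 25° C. to 30° C. to the one- to two-leaf stage, the floodwater received diluted emulsion at a predetermined amount; visual assessment followed at 3 weeks.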
# Stellaria media = assay: Test Example 5: herbicidal effect by foliage application, plastic box (symbol P); details: 320 g/ha, 3 weeks after application
# Method in brief: as §1
SMILES,"I: Avena fatua, herbicidal effect grade (Avena fatua)","K: Lolium multiflorum Lam., herbicidal effect grade (Lolium multiflorum Lam. [1])","K: Lolium multiflorum Lam., herbicidal effect grade (Lolium multiflorum Lam. [2])","c: corn, effect on crop grade (corn)","R: Veronica persica, herbicidal effect grade (Veronica persica)","b: directly sowed rice plant, effect on crop grade (rice plant)","b: directly sowed rice plant, effect on crop grade (rice)","L: Apera spica-venti, herbicidal effect grade (Apera spica-venti)","e: wheat, effect on crop grade (wheat)","J: Alopecurus myosuroides, herbicidal effect grade (Alopecurus myosuroides)","herbicidal effect on E, grade 0-5 (Cyperus difformis)","G: Setaria viridis, herbicidal effect grade (Setaria viridis)","herbicidal effect on H (Echinochloa crus-galli var. crus-galli), grade 0-5 [3]","H: Echinochloa crus-galli var. crus-galli, herbicidal effect grade [4]","Herbicidal effect grade, B: Scirpus juncoides (Scirpus juncoides)","P: Stellaria media, herbicidal effect grade (Stellaria media)"
CCCC(=O)CC1CC(O)=C(c2c(C)cc(C)cc2C)C1=O (stereo not drawn) [2-021],3 (Herbicidal ratio of 40% or higher and lower than 70%),5 (Herbicidal ratio of 90% or more (almost completely withered)),5 (Herbicidal ratio of 90% or more (almost completely withered)),1 (Herbicidal ratio of 5% or higher and lower than 20%),0 (Herbicidal ratio of 5% or lower (almost no effect)),4 (Herbicidal ratio of 70% or higher and lower than 90%),5 (Herbicidal ratio of 90% or more (almost completely withered)),0 (Herbicidal ratio of 5% or lower (almost no effect)),0 (Herbicidal ratio of 5% or lower (almost no effect)),5 (Herbicidal ratio of 90% or more (almost completely withered)),3 (Herbicidal ratio of 40% or higher and lower than 70%),4 (Herbicidal ratio of 70% or higher and lower than 90%),5 (Herbicidal ratio of 90% or more (almost completely withered)),4 (Herbicidal ratio of 70% or higher and lower than 90%),2 (Herbicidal ratio of 20% or higher and lower than 40%),0 (Herbicidal ratio of 5% or lower (almost no effect))
Cc1cc(C)c(C2=C(O)CC(CC(=O)C(C)C)C2=O)c(C)c1 (stereo not drawn) [2-016],4 (Herbicidal ratio of 70% or higher and lower than 90%),5 (Herbicidal ratio of 90% or more (almost completely withered)),5 (Herbicidal ratio of 90% or more (almost completely withered)),3 (Herbicidal ratio of 40% or higher and lower than 70%),0 (Herbicidal ratio of 5% or lower (almost no effect)),5 (Herbicidal ratio of 90% or more (almost completely withered)),5 (Herbicidal ratio of 90% or more (almost completely withered)),2 (Herbicidal ratio of 20% or higher and lower than 40%),0 (Herbicidal ratio of 5% or lower (almost no effect)),5 (Herbicidal ratio of 90% or more (almost completely withered)),4 (Herbicidal ratio of 70% or higher and lower than 90%),5 (Herbicidal ratio of 90% or more (almost completely withered)),5 (Herbicidal ratio of 90% or more (almost completely withered)),5 (Herbicidal ratio of 90% or more (almost completely withered)),0 (Herbicidal ratio of 5% or lower (almost no effect)),0 (Herbicidal ratio of 5% or lower (almost no effect))
CON=C(C)CC1CC(O)=C(c2c(C)cc(-c3ccc(Cl)cc3)cc2C)C1=O (mixture of isomers) [6-029],5 (Herbicidal ratio of 90% or more (almost completely withered)),5 (Herbicidal ratio of 90% or more (almost completely withered)),5 (Herbicidal ratio of 90% or more (almost completely withered)),2 (Herbicidal ratio of 20% or higher and lower than 40%),4 (Herbicidal ratio of 70% or higher and lower than 90%),5 (Herbicidal ratio of 90% or more (almost completely withered)),5 (Herbicidal ratio of 90% or more (almost completely withered)),5 (Herbicidal ratio of 90% or more (almost completely withered)),5 (Herbicidal ratio of 90% or more (almost completely withered)),5 (Herbicidal ratio of 90% or more (almost completely withered)),5 (Herbicidal ratio of 90% or more (almost completely withered)),5 (Herbicidal ratio of 90% or more (almost completely withered)),5 (Herbicidal ratio of 90% or more (almost completely withered)),5 (Herbicidal ratio of 90% or more (almost completely withered)),3 (Herbicidal ratio of 40% or higher and lower than 70%),3 (Herbicidal ratio of 40% or higher and lower than 70%)
CON=C(C)CC1CC(O)=C(c2c(C)cc(-n3cc(Cl)cn3)cc2C)C1=O (mixture of isomers) [6-004],4 (Herbicidal ratio of 70% or higher and lower than 90%),5 (Herbicidal ratio of 90% or more (almost completely withered)),5 (Herbicidal ratio of 90% or more (almost completely withered)),2 (Herbicidal ratio of 20% or higher and lower than 40%),3 (Herbicidal ratio of 40% or higher and lower than 70%),5 (Herbicidal ratio of 90% or more (almost completely withered)),5 (Herbicidal ratio of 90% or more (almost completely withered)),5 (Herbicidal ratio of 90% or more (almost completely withered)),0 (Herbicidal ratio of 5% or lower (almost no effect)),5 (Herbicidal ratio of 90% or more (almost completely withered)),5 (Herbicidal ratio of 90% or more (almost completely withered)),5 (Herbicidal ratio of 90% or more (almost completely withered)),5 (Herbicidal ratio of 90% or more (almost completely withered)),5 (Herbicidal ratio of 90% or more (almost completely withered)),4 (Herbicidal ratio of 70% or higher and lower than 90%),–

# — patent US11000033B2, “Ketone or oxime compound, and herbicide” (NISSAN CHEMICAL CORPORATION, priority 2014, dated 2021)
